Measured values reported in US5932189A, “Cyclic peptide somatostatin analogs” (Diatech, Inc., priority 1994, dated 1999).
Square brackets hold non-standard residues; d marks the D form. Peptide text beside a SMILES is read from it. * marks the point of attachment. X4 = NCCCC[C@H](NC(=O)[C@H](CS)NC(=O)CNC(=O)[C@@H](N)CCCCNC(=O)C*)C(N)=O; X8 = NC(=O)[C@H](CCC(=O)O)NC(=O)[C@H](CS)NC(=O)CNC(=O)[C@H](CS)NC(=O)C*; X2 = N=C(N)NCCC[C@H](NC(=O)[C@H](CS)NC(=O)CNC(=O)CNC(=O)C*)C(N)=O; X1 = NCCCC[C@H](NC(=O)[C@H](CS)NC(=O)CNC(=O)CNC(=O)C*)C(N)=O; NMeF = CN[C@@H](Cc1ccccc1)C(=O)O; hCys = N[C@@H](CCS)C(=O)O

biological target: T1, somatostatin receptors (Rattus norvegicus, UniProt P30680); assay: Inhibition of binding of (125I-Tyr11)somatostatin-14 to AR42J rat pancreatic tumor cell membranes; details: 0.5 nM (125I-Tyr11)somatostatin-14, 25 min at 30° C., Hill plots
T1 construct: endogenous in cells; host or cells: AR42J rat pancreatic tumor cell line (membrane preparation)
Experimental: Inhibition of Binding of (^125 I-Tyr^11)somatostatin-14 to AR42J Rat Pancreatic Tumor Cell Membranes
The rat pancreatic tumor cell line AR42J which expresses the somatostatin receptor was cultured in Dulbecco's minimal essential media (DMEM) supplemented with 10% fetal bovine serum (FBS) and 8 mM glutamine in a humidified 5% CO2 atmosphere at 37° C. in T-flasks. Harvested cells were homogenized in cold 50 mM Tris-HCl buffer (pH 7.4) and the homogenate then centrifuged at 39,000 g for 10 min at 4° C. Pellets were washed once with buffer and then resuspended in an ice-cold solution of 10 mM Tris-HCl (pH 7.4). Equal aliquots of this cell membrane preparation were incubated with (^125 I-Tyr^11)somatostatin-14 (at a final concentration of 0.5 nM and 750,000 cpm/mL, at a specific activity of 2000 Ci/mmol, Amersham, Arlington Heights, Ill.) and peptide at a final concentration of from 10^-11 M to 10^-6 M in a solution of 50 mM HEPES (pH 7.4) containing 1% bovine serum albumin (BSA), 5 mM MgCl2, Trasylol (200,000 International Units), bacitracin (0.02 mg/mL) and phenylmethylsulfonylfluoride (0.02 mg/mL) for 25 min at 30° C. Using a filtration manifold, this mixture was filtered through a polyethyleneimine-washed GC/F filter (Whatman, Maidstone, England), and the residue remaining on the filter washed thrice with 5 mL cold HEPES buffer. The filter and a sample of the filter washings were then counted in a gamma counter. To assess non-specific binding, the assay was performed in the presence of unlabeled somatostatin-14 at 200 nM. Data analysis including Hill plots of the data provided inhibition constants (see Bylund & Yamamura, "Methods of receptor binding", in Methods in Neurotransmitter Receptor Analysis, Yamamura et al., eds., Raven Press: New York, 1990).

T1 sequence (P30680 whole entry): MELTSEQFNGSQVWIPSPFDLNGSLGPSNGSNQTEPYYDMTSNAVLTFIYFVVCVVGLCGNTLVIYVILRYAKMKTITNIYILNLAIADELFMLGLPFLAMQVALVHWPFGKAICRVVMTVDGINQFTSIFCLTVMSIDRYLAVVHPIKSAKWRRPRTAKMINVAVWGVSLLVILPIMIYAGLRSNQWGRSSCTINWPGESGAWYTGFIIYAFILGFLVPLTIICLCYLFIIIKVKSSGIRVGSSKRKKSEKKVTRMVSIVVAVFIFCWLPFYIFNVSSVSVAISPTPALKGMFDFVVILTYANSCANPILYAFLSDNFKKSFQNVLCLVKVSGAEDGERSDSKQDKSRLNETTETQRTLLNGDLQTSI

| Ki | SMILES |
| --- | --- |
| 2.5 nM | CC(C)[C@@H]1NC(=O)[C@H](CCCCN)NC(=O)[C@@H](Cc2c[nH]c3ccccc23)NC(=O)[C@H](Cc2ccc(O)cc2)NC(=O)[C@H](Cc2ccccc2)N(C)C(=O)[C@H](CCSCC(=O)NCC(=O)NCC(=O)N[C@@H](CS)C(=O)N[C@@H](CCCCN)C(N)=O)NC1=O [cyclo.(N--CH3)F.YWD KV.Hcy(CH2 CO.GGCK.amide)] (cyclo([NMeF]Y[dW]KV[hCys](X1))) |
| 0.29 nM | CC(C)[C@@H]1NC(=O)[C@H](CCCCN)NC(=O)[C@@H](Cc2c[nH]c3ccccc23)NC(=O)[C@H](Cc2ccc(O)cc2)NC(=O)[C@H](Cc2ccccc2)N(C)C(=O)[C@H](CCSCC(=O)NCC(=O)NCC(=O)N[C@@H](CS)C(=O)N[C@@H](CCCNC(=N)N)C(N)=O)NC1=O [cyclo.(N--CH3)F.YWD KV.Hcy(CH2 CO.GGCR.amide)] (cyclo([NMeF]Y[dW]KV[hCys](X2))) |
| < 0.01 nM | CC(C)[C@@H]1NC(=O)[C@H](CCCCN)NC(=O)[C@@H](Cc2c[nH]c3ccccc23)NC(=O)[C@H](Cc2ccc(O)cc2)NC(=O)[C@H](Cc2ccccc2)N(C)C(=O)[C@H](CCS)NC1=O [cyclo.(N--CH3)F.YWD KV.Hcy] (cyclo(KV[hCys][NMeF]Y[dW])) |

Second part, the compound before the results:

| SMILES | Ki |
| --- | --- |
| C[C@@H](O)[C@@H]1NC(=O)[C@H](CCCCN)NC(=O)[C@@H](Cc2c[nH]c3ccccc23)NC(=O)[C@H](Cc2ccc(O)cc2)NC(=O)[C@H](Cc2ccccc2)N(C)C(=O)[C@H](CCS)NC1=O [cyclo.(N--CH3)F.YWD KT.Hcy] (cyclo(KT[hCys][NMeF]Y[dW])) | 0.26 nM |
| CC(C)[C@@H]1NC(=O)[C@H](CCCCN)NC(=O)[C@@H](Cc2c[nH]c3ccccc23)NC(=O)[C@H](Cc2ccc(O)cc2)NC(=O)[C@H](Cc2ccccc2)N(C)C(=O)[C@H](CCSCC(=O)NCCCC[C@H](N)C(=O)NCC(=O)N[C@@H](CS)C(=O)N[C@@H](CCCCN)C(N)=O)NC1=O [cyclo.(N--CH3)F.YWD KV.Hcy(CH2 CO.(ε-K)GCK.amide)] (cyclo([NMeF]Y[dW]KV[hCys](X4))) | 4.2 nM |
| CC(C)[C@@H]1NC(=O)[C@H](CCCCN)NC(=O)[C@@H](Cc2c[nH]c3ccccc23)NC(=O)[C@H](Cc2ccc(O)cc2)NC(=O)[C@H](Cc2ccccc2)N(C)C(=O)[C@H](CCSCC(=O)N[C@@H](CS)C(=O)NCC(=O)N[C@@H](CS)C(=O)N[C@@H](CCC(=O)O)C(N)=O)NC1=O [cyclo.(N--CH3)F.YWD KV.Hcy(CH2 CO.CGCE.amide)] (cyclo(KV[hCys](X8)[NMeF]Y[dW])) | 8.5 nM |
